From the NIST ThermoML archive (doi:10.1016/j.jct.2013.09.030)
Numbers after ± are expanded uncertainties.

Assay: cn = amount concentration of the nth substance listed, in mol/dm3
Details: 303.15 K; 101 kPa; Liquid; 4510 conductivity meter (Jenway, UK); c1 = 0.0005258

**Q.** For `CC1=C(C(=O)O)N2C(=O)[C@@H](NC(=O)[C@H](N)C3=CCC=CC3)[C@H]2SC1` [Cefradin] + O, which electrical conductivity is on record?
**A.** 0.000611 ± 0.0002 S/m
